# Data from PMC4171097, “Severe MgADP Inhibition of Bacillus subtilis F1-ATPase Is Not Due to the Absence of Nucleotide Binding to the Noncatalytic Nucleotide Binding Sites” (PLoS ONE, 2014).
# Target: T1, α3β3γ complex of BF1 (F1-ATPase from Bacillus subtilis) (Bacillus subtilis, UniProt P37808+P37809, P37808:R354W)
# T1 construct: gene atpA; recombinant alpha3beta3gamma subcomplex of F1-ATPase (no delta, no epsilon), from plasmid pET21-BF1; with ATP synthase gamma chain
# Experiment: tryptophan fluorescence quenching titration (ex […] nm, em […] nm), simple binding equation
# Conditions: read-out: apparent Kd
# T1 sequence (P37809 whole entry): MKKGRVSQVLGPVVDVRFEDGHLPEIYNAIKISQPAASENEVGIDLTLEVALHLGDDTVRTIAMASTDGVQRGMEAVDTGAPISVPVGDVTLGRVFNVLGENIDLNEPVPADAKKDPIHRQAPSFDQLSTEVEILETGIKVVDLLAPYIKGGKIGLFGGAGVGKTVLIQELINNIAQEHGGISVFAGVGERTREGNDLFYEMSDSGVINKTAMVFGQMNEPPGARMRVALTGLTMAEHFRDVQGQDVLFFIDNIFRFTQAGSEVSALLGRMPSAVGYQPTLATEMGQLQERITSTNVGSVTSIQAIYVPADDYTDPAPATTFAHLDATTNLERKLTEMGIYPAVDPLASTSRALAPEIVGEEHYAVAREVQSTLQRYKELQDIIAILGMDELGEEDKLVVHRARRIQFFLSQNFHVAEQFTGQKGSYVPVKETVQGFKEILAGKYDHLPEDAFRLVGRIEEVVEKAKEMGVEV
# T1 sequence (P37810 whole entry, further chain): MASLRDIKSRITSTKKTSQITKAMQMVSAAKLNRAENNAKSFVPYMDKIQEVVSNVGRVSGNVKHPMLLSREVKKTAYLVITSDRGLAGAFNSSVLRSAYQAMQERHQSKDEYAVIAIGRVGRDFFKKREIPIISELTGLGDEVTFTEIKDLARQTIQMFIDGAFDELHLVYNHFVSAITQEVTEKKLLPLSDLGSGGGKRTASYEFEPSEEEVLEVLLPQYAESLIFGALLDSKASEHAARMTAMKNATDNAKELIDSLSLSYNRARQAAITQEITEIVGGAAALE
# T1 sequence (P37808 2-502 R354W): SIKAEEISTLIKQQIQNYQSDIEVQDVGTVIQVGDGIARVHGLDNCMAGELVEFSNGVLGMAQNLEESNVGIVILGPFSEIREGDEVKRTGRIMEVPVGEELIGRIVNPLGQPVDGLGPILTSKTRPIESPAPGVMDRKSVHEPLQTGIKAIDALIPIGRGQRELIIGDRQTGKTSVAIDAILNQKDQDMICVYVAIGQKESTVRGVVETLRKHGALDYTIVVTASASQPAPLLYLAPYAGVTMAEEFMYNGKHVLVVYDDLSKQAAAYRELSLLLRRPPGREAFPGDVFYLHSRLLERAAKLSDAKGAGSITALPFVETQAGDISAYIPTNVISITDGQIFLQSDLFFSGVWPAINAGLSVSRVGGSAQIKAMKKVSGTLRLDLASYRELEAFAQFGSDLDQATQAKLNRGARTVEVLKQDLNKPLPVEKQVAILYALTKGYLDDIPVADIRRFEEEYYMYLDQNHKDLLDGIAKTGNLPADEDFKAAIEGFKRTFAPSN
smiles,measurement,value
Nc1ncnc2c1ncn2[C@@H]1O[C@H](COP(=O)(O)OP(=O)(O)OP(=O)(O)O)[C@@H](O)[C@H]1O [ATP],Kd,34.4 ± 2.9 µM
